Laboratory results: patent US12534456B2, “Heterocyclyl pyridines as novel fungicides” (Bayer Aktiengesellschaft, priority 2020, dated 2026)

Experiment: physchem
Format: physicochemical
Settings: not given
Description: Measurement of Log P values as provided herein was performed according to EEC directive 79/831 Annex V.A8 by HPLC (High Performance Liquid Chromatography) on reversed phase columns with the following methods: • ^[a]
If more than one Log P value is available within the same method, all the values are given and separated by “+”.
Lambda-max-values were determined using UV-spectra from 200 nm to 400 nm and the peak values of the chromatographic signals

SMILES | LogP
Cc1ccc(CC2CNN=C(c3cc(Cl)ncc3Oc3cccc(C(F)(F)F)c3)N2)c(C)c1 (racemic) [Compound I-084] | 2.86^[a]
Cc1cccc(Oc2cnc(Cl)cc2C(=O)NC(CON)Cc2ccc(C)cc2C)c1 (centres unmarked) [4-07] | 3.37^[a]
Cc1ccc(Cl)c(CC2CON=C(c3cc(Cl)ncc3Br)N2)c1 (centres unmarked) [7-09] | 3.46^[a]
FC(F)(F)c1cccc(Oc2cnc(Cl)cc2C2=NOCC(c3ccccc3)N2)c1 (racemic) [Compound I-070] | 3.64^[a]
FC(F)(F)c1cccc(Oc2cnc(Cl)cc2C2=NOC(C3CC3)C(c3ccc(Cl)cc3)N2)c1 (mixture of isomers) [Compound I-139] | 4.47^[a]
ON=C(NC(CCl)Cc1ccc(C(F)(F)F)cc1Cl)c1cc(Cl)ncc1Oc1cccc(C(F)(F)F)c1 (centres unmarked) [16-09] | 4.97^[a]
Cc1ccc(CC2CON=C(c3cc(Cl)ncc3Oc3cccc(C4CC4F)c3)N2)c(C)c1 (mixture of isomers) [Compound I-143] | 4.38^[a]
Cc1ccc(CC2CON=C(c3cc(Cl)ncc3Oc3ccc4c(c3)CCC4)N2)c(C)c1 (racemic) [Compound I-100] | 5.16^[a]
Clc1ccc(CC2CON=C(c3cc(Cl)ncc3Oc3cccc(C4CC4)c3)N2)c(Cl)c1 (racemic) [Compound I-025] | 4.98^[a]
Cc1cccc(Oc2cnc(Cl)cc2C2=NOCC(Cc3ccc(C)cc3C)N2)c1 (racemic) [Compound I-007] | 4.55^[a]
O=C(NC(CON1C(=O)c2ccccc2C1=O)Cc1ccc(Br)cc1Cl)c1cc(Cl)ncc1Oc1cccc(C2CC2)c1 (centres unmarked) [3-02] | 5.75^[a]
Cc1ccc(CC2CON=C(c3cc(Cl)ncc3Oc3ccc4c(c3)OC(F)(F)O4)N2)c(C)c1 (racemic) [Compound I-114] | 4.65^[a]
Cc1ccc(CC2CON=C(c3cc(Cl)ncc3Oc3cccc(Cl)c3)N2)c(C)c1 (racemic) [Compound I-002] | 4.51^[a]
Cc1ccc(CC2CON=C(c3cc(C(F)(F)F)ncc3Oc3cccc(C4CC4)c3F)N2)c(C)c1 (racemic) [Compound I-033] | 5.20^[a]
O=C(O)c1cc(Cl)nc(F)c1Oc1cccc(C(F)(F)F)c1 [Compound 1-14] | 2.95^[a]
O=C(NC(CON1C(=O)c2ccccc2C1=O)Cc1ccc(Br)cc1Cl)c1cc(Cl)ncc1Oc1cccc(C2CC2)c1F (centres unmarked) [3-05] | 5.62^[a]
FC(F)(F)c1cccc(Oc2cnc(Cl)cc2C2=NOCC(Cc3csc(C(F)(F)F)c3)N2)c1 (racemic) [Compound I-068] | 4.40^[a]
Cc1ccc(CC(CON)NC(=O)c2cc(Cl)ncc2Oc2cccc(C3CC3)c2F)c(C)c1 (centres unmarked) [4-06] | 3.72^[a]
NOCC(Cc1ccc(Br)cc1Cl)NC(=O)c1cc(Cl)ncc1Oc1cccc(C2CC2)c1F (centres unmarked) [4-05] | 4.08^[a]
O=C(NC(CCl)Cc1csc(Cl)c1)c1cc(Cl)ncc1Oc1cccc(C(F)(F)F)c1 (centres unmarked) [14-11] | 4.96^[a]
O=C(O)c1cc(Cl)ncc1Oc1cccc(C2CC2)c1F [Compound 1-06] | 2.97^[a]
Cc1ccc(CC(CCl)NC(=O)c2cc(Cl)nc(F)c2Oc2cccc(C(F)(F)F)c2)c(C)c1 (centres unmarked) [14-06] | 5.45^[a]
Cc1ccc(CC2CON=C(c3cc(Cl)ncc3Oc3cccc(C(F)F)c3)N2)c(C)c1 (racemic) [Compound I-003] | 4.08^[a]

SMILES | LogP
COc1cc(C2=NOCC(Cc3ccc(C)cc3C)N2)c(Oc2cccc(C(F)(F)F)c2)cn1 (centres unmarked) [Compound I-152] | 4.55^[a]
Cc1ccc(CC2CON=C(c3cc(C)ncc3Oc3cccc(C4CC4)c3)N2)c(C)c1 (racemic) [Compound I-015] | 3.94^[a]
CC(=O)c1cc(C2=NOCC(Cc3ccc(C)cc3)N2)c(Oc2cccc(C(F)(F)F)c2)cn1 (racemic) [Compound I-061] | 4.07^[a]
Cc1ccc(CC2CON=C(c3cc(Cl)ncc3Oc3cccc(Cl)c3)N2)c(Cl)c1 (racemic) [Compound I-103] | 4.66^[a]
CSc1c(Cl)ncc(Oc2cccc(C(F)(F)F)c2)c1C1=NOCC(Cc2ccc(C)cc2C)N1 (racemic) [Compound I-121] | 4.67^[a]
NOCC(Cc1ccc(Br)cc1Cl)NC(=O)c1cc(Cl)ncc1Oc1cccc(C2CC2)c1 (centres unmarked) [4-02] | 4.15^[a]
Cc1ccc(CC(CON2C(=O)c3ccccc3C2=O)NC(=O)c2cc(Cl)ncc2Oc2cccc(C3CC3)c2F)c(C)c1 (centres unmarked) [3-06] | 5.38^[a]
FC1ON=C(c2cc(Cl)ncc2Oc2cccc(C(F)(F)F)c2)NC1c1ccc(Cl)cc1 (mixture of isomers) [Compound I-051] | 3.33^[a]
CCc1cc(C2=NOCC(Cc3ccc(C)cc3C)N2)c(Oc2cccc(C3CC3)c2)cn1 (racemic) [Compound I-027] | 4.40^[a]
Cc1cc(C2=NOCC(Cc3ccc(Cl)cc3Cl)N2)c(Oc2cccc(C3CC3)c2)cn1 (racemic) [Compound I-028] | 4.08^[a]
Cc1ccc(CC2CON=C(c3cc(C)ncc3Oc3cccc(Cl)c3)N2)c(C)c1 (racemic) [Compound I-018] | 3.76^[a]
COc1cccc(Oc2cnc(C)cc2C2=NOCC(Cc3ccc(C)cc3C)N2)c1 (racemic) [Compound I-009] | 3.29^[a]
Cc1ccc(CC2CON=C(c3c(Oc4cccc(C(F)(F)F)c4)cnc(Cl)c3C)N2)c(C)c1 (racemic) [Compound I-124] | 4.55^[a]
Cc1ccc(CC2CON=C(c3cc(Cl)ncc3Oc3cccc(Br)c3)N2)c(C)c1 (racemic) [Compound I-104] | 4.74^[a]
CC(=O)c1ccc(CC2CON=C(c3cc(Cl)ncc3Oc3cccc(C(F)F)c3)N2)c(Cl)c1 (racemic) [Compound I-038] | 3.47^[a]
Cc1ccc(CC2CON=C(c3c(Oc4cccc(C(F)(F)F)c4)cnc(Cl)c3F)N2)c(C)c1 (racemic) [Compound I-062] | 4.66^[a]
C=Cc1ccc(CC2CON=C(c3cc(Cl)ncc3Oc3cccc(C(F)F)c3)N2)c(Cl)c1 (racemic) [Compound I-040] | 4.29^[a]
Cc1ccc(CC2CON=C(c3cc(Cl)ncc3Oc3cccc(Cl)c3F)N2)c(C)c1 (centres unmarked) [Compound I-144] | 4.59^[a]
CC(=O)OC1ON=C(c2cc(Cl)ncc2Oc2cccc(C(F)(F)F)c2)NC1c1ccc(Cl)cc1 (mixture of isomers) [Compound I-073] | 4.08^[a]
C#Cc1cc(C2=NOCC(Cc3ccc(Br)cc3C)N2)c(Oc2cccc(C(F)(F)F)c2)cn1 (racemic) [Compound I-091] | 4.19^[a]
Cc1cc(Cl)ccc1CC1CON=C(c2cc(Cl)ncc2Br)N1 (centres unmarked) [7-06] | 3.44^[a]
Cc1ccc(CC2CON=C(c3cc(Cl)ncc3Oc3cnc4c(c3)CCC4)N2)c(C)c1 (centres unmarked) [Compound I-140] | 3.17^[a]
O=C(O)c1c(Oc2cccc(C(F)(F)F)c2)cnc(Cl)c1F [Compound 1-01] | 2.28^[a]

SMILES | LogP
Cc1ccc(CC2CON=C(c3cc(Cl)ncc3Oc3ccc4ccccc4c3)N2)c(C)c1 (racemic) [Compound I-086] | 4.77^[a]
CCOc1cccc(Oc2cnc(Cl)cc2C2=NOCC(Cc3ccc(C)cc3C)N2)c1 (centres unmarked) [Compound I-142] | 4.59^[a]
Cc1ccc(CC2CON=C(c3cc(Cl)ncc3Oc3cccc(N(C)C)c3)N2)c(C)c1 (centres unmarked) [Compound I-132] | 4.47^[a]
FC(F)(F)c1cccc(Oc2cnc(Cl)cc2C2=NOCC(C3(c4ccccc4)CC3)N2)c1 (racemic) [Compound I-046] | 4.21^[a]
Cc1ccc(C(CCl)NC(=NO)c2cc(Cl)ncc2Oc2cccc(C(F)(F)F)c2)cc1 (centres unmarked) [16-12] | 4.19^[a]
Cc1ccc(CC(CON2C(=O)c3ccccc3C2=O)NC(=O)c2cc(Cl)ncc2Oc2cccc(C(F)F)c2)c(C)c1 (centres unmarked) [3-11] | 4.69^[a]
Cc1ccc(CC2CON=C(c3cc(C)ncc3Oc3cccc(C4CC4)c3)N2)c(Cl)c1 (racemic) [Compound I-030] | 3.98^[a]
Cc1cccc(Oc2cnc(Cl)cc2C(=O)NC(CON2C(=O)c3ccccc3C2=O)Cc2ccc(C)cc2C)c1 (centres unmarked) [3-07] | 5.16^[a]
Fc1c(Oc2cnc(Cl)cc2C2=NOCC(Cc3ccc(Cl)cc3Cl)N2)cccc1C1CC1 (racemic) [Compound I-024] | 4.98^[a]
CCc1cccc(Oc2cnc(Cl)cc2C2=NOCC(Cc3ccc(C)cc3C)N2)c1 (racemic) [Compound I-092] | 5.04^[a]
ON=C(NC(CCl)Cc1csc(Cl)c1)c1cc(Cl)ncc1Oc1cccc(C(F)(F)F)c1 (centres unmarked) [16-11] | 4.48^[a]
Cc1ccc(CC2CON=C(c3cc(Cl)ncc3Oc3ccccc3)N2)c(C)c1 (racemic) [Compound I-063] | 4.17^[a]
Cc1ccc(CC2CON=C(c3cc(Cl)ncc3Oc3ccc4c(c3)CCO4)N2)c(C)c1 (racemic) [Compound I-111] | 4.23^[a]
C=C(OCC)c1cc(C(=O)OC)c(Oc2cccc(C(F)(F)F)c2)cn1 [Compound 1-05] | 4.70^[a]
Cc1ccc(CC(CCl)NC(=NO)c2cc(Cl)ncc2Br)c(Cl)c1 (centres unmarked) [18-02] | 3.85^[a]
Cc1ccc(CC2CON=C(c3cc(Cl)ncc3Oc3cccc(OC(F)F)c3)N2)c(C)c1 (racemic) [Compound I-065] | 4.38^[a]
NOCC(Cc1ccc(Cl)cc1Cl)NC(=O)c1cc(Cl)ncc1Oc1cccc(C2CC2)c1F (centres unmarked) [4-04] | 3.96^[a]
C#Cc1ccc(CC2CON=C(c3cc(C#C)ncc3Oc3cccc(C(F)(F)F)c3)N2)c(C)c1 (racemic) [Compound I-074] | 3.75^[a]
Fc1c(Br)cccc1Oc1cnc(Cl)cc1C1=NOCC(Cc2ccc(Cl)cc2Cl)N1 (racemic) [Compound I-115] | 4.69^[a]
COc1cccc(Oc2cnc(Cl)cc2C(=O)NC(CON)Cc2ccc(Br)cc2Cl)c1 (centres unmarked) [4-08] | 3.39^[a]
Cc1ccc(CC2CON=C(c3cc(C4CC4)ncc3Oc3cccc(C4CC4)c3)N2)c(C)c1 (racemic) [Compound I-016] | 4.87^[a]

Same assay, conditions: Table 24, compounds of formula (18); method [a]

SMILES | chromatographic logP
Cc1ccc(CC(CCl)NC(=NO)c2ccncc2Br)cc1 (racemic) [Compound 18-01, 3-bromo-N-[(2RS)-1-chloro-3-(4-methylphenyl)propan-2-yl]-N′-hydroxypyridine-4-carboximidamide] | 2.78
